Test results taken from PubChem BioAssay (NCI).
Several values for one entry are separate records, joined by “and”; a condition that tells them apart may be missing. Equal values may be shown once.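 Cultured in 96-well plates, cells were exposed to test compound for 48 hours across five concentrations. Abbreviation: GI50, concentration required for 50% inhibition of growth. TGI is the concentration that stops growth completely.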

Assays:
Test in all cases: NCI anticancer screen, dose series, 48 h
T-47D breast = tested on: T-47D breast
NCI/ADR-RES ovarian = tested on: NCI/ADR-RES ovarian
HS 578T breast = tested on: HS 578T breast
MDA-MB-231 breast = tested on: MDA-MB-231 breast
BT-549 breast = tested on: BT-549 breast
PC-3 prostate = tested on: PC-3 prostate

Compound	GI50 (T-47D breast)	TGI (T-47D breast)	GI50 (NCI/ADR-RES ovarian)	TGI (NCI/ADR-RES ovarian)	GI50 (HS 578T breast)	TGI (HS 578T breast)	GI50 (MDA-MB-231 breast)	TGI (MDA-MB-231 breast)	GI50 (BT-549 breast)	TGI (BT-549 breast)	GI50 (PC-3 prostate)	TGI (PC-3 prostate)
COc1ccc(Cl)cc1Nc1nc(C(F)(F)F)ccc1C(=O)N/N=C/c1ccc([N+](=O)[O-])cc1	1.81 µM	7.75 µM	2.25 µM	6.7 µM	2.57 µM	62.9 µM	1.49 µM	4.38 µM	–	–	–	–
Cc1cc(Cc2cc(C)c(O)c(C)c2)cc(C)c1O	4.64 µM	72 µM	3.95 µM	48.5 µM	2.58 µM	12.5 µM	6.85 µM	38.3 µM	3.78 µM	17.6 µM	14.8 µM	> 100 µM
COc1cc(NS(C)(=O)=O)ccc1Nc1c2ccccc2nc2c(C)cccc12	0.111 µM and 0.109 µM	4.05 µM and 5.71 µM	0.992 µM and 1.45 µM	76.1 µM and 54.9 µM	0.652 µM and 0.406 µM	12.8 µM and 6.53 µM	1.73 µM and 2.88 µM	7.01 µM and 15.3 µM	0.412 µM and 0.394 µM	4.62 µM and 2.86 µM	0.629 µM and 1.05 µM	18.6 µM and 25.5 µM
CC1=CC[C@@H]2C(C)(C)C(=O)CC[C@@]2(C)[C@@H]1COc1ccc2ccc(=O)oc2c1	2.69 µM	11.1 µM	4.06 µM	19.9 µM	40.5 µM	> 100 µM	25.5 µM	> 100 µM	4.37 µM	22.5 µM	5.41 µM	31.8 µM
COc1cc(-c2nn(-c3ccc(NC(=O)Nc4ccc(Cl)c(Cl)c4)cc3)cc2-c2ccncc2)ccc1Cl	3.02 µM	54.6 µM	3.24 µM	> 100 µM	3.22 µM	11.9 µM	2.62 µM	7.7 µM	3.35 µM	11.2 µM	2.89 µM	> 100 µM
CN(CCC#N)c1ccc(/C=C(\C#N)c2cccc(C(F)(F)F)c2)cc1	2.25 µM	> 100 µM	3.68 µM	> 100 µM	4.3 µM	> 100 µM	4.56 µM	> 100 µM	3.28 µM	34.3 µM	4.07 µM	> 100 µM
CN(Cc1cnc(N)nc1N)c1ccc(C(=O)O)cc1	> 100 µM	> 100 µM	> 100 µM	> 100 µM	> 100 µM	> 100 µM	> 100 µM	> 100 µM	> 100 µM	> 100 µM	> 100 µM	> 100 µM
O=S(=O)(Nc1cc(Br)c(O)c2ccccc12)c1ccc(F)cc1	2.58 µM	8.5 µM	2.96 µM	8.68 µM	2.75 µM	9.98 µM	2.1 µM	5.5 µM	8.45 µM	21.2 µM	2.93 µM	12.9 µM
Cc1csc(/C=N/NC(=O)c2nnn(-c3ccnc4c(C(F)(F)F)cccc34)c2C)c1	29.5 µM	> 100 µM	> 100 µM	> 100 µM	> 100 µM	> 100 µM	31.7 µM	> 100 µM	> 100 µM	> 100 µM	41.1 µM	> 100 µM
O=c1oc2cc(N=Cc3ccccc3Cl)ccc2c2ccccc12	–	> 100 µM	–	> 100 µM	–	> 100 µM	–	> 100 µM	–	> 100 µM	–	> 100 µM
COc1cc2ccccc2c2cc([N+](=O)[O-])oc12	–	> 45.6 µM	–	32.1 µM	–	10.1 µM	–	5.8 µM	–	7.16 µM	–	> 100 µM
Cc1c(C)c2c(c(C)c1NC(=O)/C=C\C(=O)O)CCC(C)(CCCC(C)CCCC(C)CCCC(C)C)O2 (stereo not given)	2.02 µM	4.78 µM	2.54 µM	7.46 µM	1.89 µM	4.97 µM	1.94 µM	3.55 µM	1.35 µM	2.69 µM	1.38 µM	2.91 µM
Cc1cc(N2CCN(C)CC2)nc(NCc2cc(Nc3ccnc4cc(Cl)ccc34)ccc2F)n1	1.09 µM	3.62 µM	–	–	2.82 µM	7.97 µM	–	–	2.13 µM	4.64 µM	3.51 µM	> 100 µM
O=C(/C=C1\C(=O)N(Cc2ccc([N+](=O)[O-])cc2)c2ccccc21)c1ccc(OCCN2CCCCC2)cc1	–	–	2.04 µM	5.76 µM	1.71 µM	6.09 µM	1.3 µM	2.67 µM	1.64 µM	3 µM	1.74 µM	3.52 µM
C=CCn1c(=O)c2cnc(Nc3ccc(N4CCN(C)CC4)cc3)nc2n1-c1ccc2c(n1)[C@@](O)(CC)CC2	2.17 µM	> 80.7 µM	5.69 µM	33.5 µM	0.755 µM	12.4 µM	0.558 µM	4.19 µM	0.287 µM	3.46 µM	2.24 µM	> 100 µM
O=C(COc1ccc(/C=C2\Oc3ccccc3C2=O)cc1)Nc1nccs1	75.4 µM	> 100 µM	64.9 µM	> 100 µM	20.7 µM	80.5 µM	33.4 µM	> 100 µM	18.5 µM	96.9 µM	38.1 µM	> 100 µM
COc1cc2c(c(OC)c1OC)C(=O)CC(c1cccc(NC(=O)c3ccc(Br)cc3)c1)O2 (stereo not given)	1.41 µM	5.98 µM	2.41 µM	9.45 µM	4.1 µM	> 100 µM	–	–	2.09 µM	6.39 µM	2.33 µM	8.59 µM
COc1cc(/C=N/Nc2ncnc3c2cnn3C(C)C)ccc1O	5.31 µM	> 21.5 µM	6.95 µM	> 25 µM	5.04 µM	24.8 µM	6.27 µM	> 25 µM	> 20.4 µM	> 25 µM	5.07 µM	> 25 µM
O=C(/C=C/c1ccccc1)c1c[nH]c2ccccc2c1=O	3.05 µM	17.1 µM	2.93 µM	13 µM	2.32 µM	6.34 µM	4.22 µM	18.7 µM	4.84 µM	17.8 µM	5.63 µM	33.1 µM
O=C1c2ccccc2NC(c2cc(Cl)cc(Cl)c2O)N1CCc1ccccn1 (stereo not given)	–	69.8 µM	–	> 100 µM	–	> 100 µM	–	> 100 µM	–	> 100 µM	–	> 100 µM
